Two molecules from US8648116B2, “Derivatives of N-(arylamino) sulfonamides including polymorphs as inhibitors of MEK as well as compositions, methods of use and methods for preparing the same” (Ardea Biosciences, Inc., priority 2005, dated 2014) can be followed below.

Assay [1] deals with select human cancer cells. Kind of assay: Growth inhibition in proliferation assays, summary over cell lines. In kind it is cell-based.
In another assay the test system is A375 cells. In words: Evaluation of cell cycle arrest (propidium iodide, flow cytometry). In kind it is cell-based, human. To be noted: 24 hr. The protocol:
A375 cells were plated in 96-well microplates at 10,000 cells/200 μl/well. […] After another 24 hr, cells were trypsinized, fixed in 200 μl Prefer (Anatech, Battle Creek, Mich.), and stored at 4° C. overnight. Cells were then rinsed in PBS, permeabilized and stained in 0.1% Triton X-100, 200 μg/ml DNase-free RNase, and […] propidium iodide (Molecular Probes, Sunnyvale, Calif.), and analyzed on the Guava PCA-96 (Guava Technologies, Foster City, Calif.). Data were analyzed using ModFit LT (version 3.0, Verity, Topsham, Me.).

The test system of the next assay is pERK in Colo205 tumors. Kind of assay: MEK inhibition (pERK, Western blot) against plasma concentration, tumor. In kind it is in vivo, nu/nu mice. Here is the method:
Human tumors were implanted in nu/nu mice. Compound A was administered orally for 14 days once tumors were approximately 100 mm^3 in size. Tumor growth inhibition (TGI) was determined after 14 days of treatment as the reduction in the size of tumors in treated groups versus vehicle controls. The time to endpoint (TTE) was calculated as the time for the tumor to reach the specified endpoint volume or the last day of the study, whichever came first. Treatment outcome was determined from percent tumor growth delay (% TGD), defined as the percent increase in median TTE of treated versus vehicle-treated control mice. Animals were also monitored for regression responses. Levels of pERK in tumors and brain were determined by Western blots and correlated with plasma levels of Compound A for the pharmacodynamic/pharmacokinetic study. A number of tumor models were evaluated with different doses and dosing regimens. […] The effect of different dosing regimens was evaluated in A375 xenografts.
Female nu/nu mice implanted with Colo205 tumor cells were given a single dose of vehicle or Compound A at 2.5, 5, 10, or 25 mg/kg. Compound levels were determined in plasma samples and pERK levels were determined in tumor and brain samples collected at 2, 6, 12, and 24 hr post-dose. […]
For orientation: A western blot detects proteins with antibodies after separation by electrophoresis.

The structures appear in SMILES notation. Like-named read-outs stand apart in the source and are kept apart here.

With `COc1cc(F)c(F)c(Nc2ccc(I)cc2F)c1NS(=O)(=O)C1(C[C@H](O)CO)CC1`, the GI50 in assay [1] (mean over A375, Colo205, HT29 and A431, 48 hr, ATP content, read-out: growth inhibition, mean potency (GI50)) was 79 nM; in assay [1] (select human cancer cells, range, read-out: GI50 values, anchorage dependent proliferation assays), 70 to 89 nM; in assay [1] (select human cancer cells, read-out: GI50, anchorage dependent proliferation assays), 51 nM; in assay [1] (select human cancer cells, read-out: GI50, anchorage independent proliferation assays), 22 nM. Besides, the “effect on cell cycle progression” value in the assay with A375 cells is “arrest in the G1 phase of the cell cycle”.

By EC50 is commonly meant the concentration needed to bring the measured effect to its halfway point. The low end stands for an effect from little substance, the high end for a need for much substance. Turning to `COc1cc(F)c(F)c(Nc2ccc(I)cc2F)c1NS(=O)(=O)C1(C[C@H](O)CO)CC1` [Compound A], the “pERK formation in tumors” value in the assay on pERK in Colo205 tumors (Colo205 xenografts, pharmacodynamic/pharmacokinetic study) is given as “inhibition of pERK formation”. The same molecule yielded an EC50 in the assay on pERK in Colo205 tumors (Mus musculus, COLO 205, plasma concentration, Colo205-bearing nu/nu mice, single dose 2.5-25 mg/kg, non-linear regression) of 73 nM.
